Columns and labels:
[1] = target: T1, trypsin (Bos taurus, UniProt P00760); assay: Trypsin-catalyzed hydrolysis and condensation of alkoxysilanes; format: biochemical, bovine; design: purchased Sigma-Aldrich #T4665; host or cells: bovine pancreas; settings: 4:1 monomer to enzyme weight ratio, 25° C., three hours
T1 sequence (P00760 24-246): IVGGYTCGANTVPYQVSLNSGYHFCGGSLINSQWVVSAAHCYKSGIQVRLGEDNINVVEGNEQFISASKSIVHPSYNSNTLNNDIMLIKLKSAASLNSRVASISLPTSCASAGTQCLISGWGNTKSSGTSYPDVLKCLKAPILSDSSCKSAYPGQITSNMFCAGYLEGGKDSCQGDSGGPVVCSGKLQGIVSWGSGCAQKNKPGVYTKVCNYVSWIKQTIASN

[2] = target: T1, trypsin; assay: Trypsin-catalyzed ring opening polymerization of cyclic siloxanes; format: biochemical, bovine; design: purchased Sigma-Aldrich #T4665; host or cells: bovine pancreas; settings: 25° C., pH 7.0, 8 days, qualitative GC; for Cyclic Area Percent, Trimer (x = 3), Trypsin / Cyclic Area Percent, Tetramer (x = 4), Trypsin / Cyclic Area Percent, Pentamer (x = 5), Trypsin: with trypsin; for Cyclic Area Percent, Trimer (x = 3), Control / Cyclic Area Percent, Tetramer (x = 4), Control / Cyclic Area Percent, Pentamer (x = 5), Control: without trypsin
From the text: The ability of trypsin to catalyze the cleavage and formation of Si—O bonds during the ring opening polymerization of cyclic siloxanes was explored under mild conditions. Specifically, five cyclic siloxanes: hexamethylcyclotrisiloxane, octamethylcyclotetrasiloxane, trimethyltri(trifluoropropyl)cyclotrisiloxane, tetramethyltetra(trifluoropropyl)cyclotetrasiloxane, and tetramethyltetraphenylcyclotetrasiloxane, were selected to study how the activity of trypsin varied as a result of different steric and electronic interactions with the substrate.
The two-phase reactions were formulated with a 4:1 monomer to enzyme weight ratio and conducted at 25° C. in neutral media (pH 7.0) for 8 days. The reaction products were isolated and qualitatively analyzed by GC (Table 5).

[3] = Protease-catalyzed condensation study after three hours; format: biochemical
Procedure: In comparison to control reactions, the ability of the proteases detailed in Table 3 to catalyse siloxane condensation was screened with […]. Comparatively, the original reactions conducted in the enzyme-catalysed condensation study were performed for six days versus three hours in this study.
Prior to reaction, the glass vials were silylated. […].
TLCK inhibits trypsin by alkylating the histidine residue in the catalytic triad.

[4] = Hydrolysis and condensation control reactions after three hours; settings: for condensation of trimethylethoxysilane (result in words): pH 7.0, 25° C., three hours
Procedure: Prior to reaction, the alkoxysilane was pre-treated with sodium hydrogencarbonate due to the potential presence of residual chloro-functional silanes. The reactions were formulated with a 4:1 trimethylethoxysilane to protein weight ratio (˜1000:l alkoxysilane to trypsin mole ratio) in neutral media (pH 7.0) and conducted at 25° C. for three hours.

[5] = Hydrolysis and condensation of trimethylethoxysilane by different sources of trypsin; effect of calcium; format: biochemical; settings: for increase of yield of the condensation of trimethylsilanol with calcium: 20 mM CaCl2, pH 7.0, 25° C., three hours; for hydrolysis of trimethylethoxysilane and condensation of trimethylsilanol (result in words): pH 7.0, 25° C.
From the text: Although various sources (e.g. mammalian, fish) of trypsin are similar (e.g. tertiary structure), their selectivity and activity may be different. […] . The reaction products were isolated and quantitatively analysed by GC (FIG. 24).
Calcium activation of trypsin induces changes in the tertiary structure of the enzyme. […] . […] The reaction products were isolated and quantitatively analysed by GC (FIG. 25).

[6] = Enzyme-catalyzed condensation study after six days; format: biochemical; settings: water, 25° C.
From the text: This study was directed to an enzyme screen with […] in order to evaluate the ability of various enzymes to catalyze the formation of a siloxane bond. Based on the similarities of the proteins isolated from the Tethya aurantia marine sponge (silicatein), Cylindrotheca fusiformis diatom (silaffin), and Equisetum telmateia plant (biopolymer extract), a series of lipases and serine-proteases were selected as homologous proteolytic enzymes. […] […]. In this study, control reactions were defined as non-enzymatic reactions. Specifically, experiments conducted in the absence of a protein were defined as negative control reactions. Proteinaceous molecules such as bovine serum albumin and porcine γ-globulins were used to study non-specific protein catalysis.
[…]. […] (˜200 mg/mL).

CCO[Si](C)(C)CCCOCC1CO1 (centres unmarked) [3-glycidoxypropyldimethylethoxysilane]
trypsin-catalyzed hydrolysis and condensation (result in words) [1]: preferentially catalyze the hydrolysis and condensation

C[Si]1(C)O[Si](C)(C)O[Si](C)(C)O1 [A, hexamethylcyclotrisiloxane]
Cyclic Area Percent, Trimer (x = 3), Trypsin [2]: (100)
Cyclic Area Percent, Trimer (x = 3), Control [2]: (100)

C[Si]1(C)O[Si](C)(C)O[Si](C)(C)O[Si](C)(C)O1 [B, octamethylcyclotetrasiloxane]
Cyclic Area Percent, Tetramer (x = 4), Trypsin [2]: (99.8)
Cyclic Area Percent, Trimer (x = 3), Trypsin [2]: (0.2)
Cyclic Area Percent, Tetramer (x = 4), Control [2]: (99.8)
Cyclic Area Percent, Trimer (x = 3), Control [2]: (0.2)

C[Si]1(CCC(F)(F)F)O[Si](C)(CCC(F)(F)F)O[Si](C)(CCC(F)(F)F)O1 (centres unmarked) [C, trimethyltri(trifluoropropyl)cyclotrisiloxane]
Cyclic Area Percent, Pentamer (x = 5), Trypsin [2]: (1.0)
Cyclic Area Percent, Tetramer (x = 4), Trypsin [2]: (1.9)
Cyclic Area Percent, Trimer (x = 3), Trypsin [2]: (97.1)
Cyclic Area Percent, Pentamer (x = 5), Control [2]: (0.8)
Cyclic Area Percent, Tetramer (x = 4), Control [2]: (1.7)
Cyclic Area Percent, Trimer (x = 3), Control [2]: (97.5)

[Ca+2].[Cl-].[Cl-] [CaCl2, calcium chloride]
condensation of trimethylsilanol (result in words) ([3]; pH 7): not observed
condensation of trimethylethoxysilane (result in words) [4]: not observed

C[Si]1(CCC(F)(F)F)O[Si](C)(CCC(F)(F)F)O[Si](C)(CCC(F)(F)F)O[Si](C)(CCC(F)(F)F)O1 (centres unmarked) [D, tetramethyltetra(trifluoropropyl)cyclotetrasiloxane]
Cyclic Area Percent, Pentamer (x = 5), Trypsin [2]: (5.1)
Cyclic Area Percent, Tetramer (x = 4), Trypsin [2]: (94.9)
Cyclic Area Percent, Trimer (x = 3), Trypsin [2]: (0)
Cyclic Area Percent, Pentamer (x = 5), Control [2]: (3.4)
Cyclic Area Percent, Tetramer (x = 4), Control [2]: (96.3)
Cyclic Area Percent, Trimer (x = 3), Control [2]: (0.2)

C[Si]1(c2ccccc2)O[Si](C)(c2ccccc2)O[Si](C)(c2ccccc2)O[Si](C)(c2ccccc2)O1 (centres unmarked) [E, tetramethyltetraphenylcyclotetrasiloxane]
Cyclic Area Percent, Tetramer (x = 4), Trypsin [2]: (100)
Cyclic Area Percent, Tetramer (x = 4), Control [2]: (100)

Cn1ccnc1 [N-methylimidazole]
condensation of trimethylsilanol (result in words) ([3]; pH 7.0, three hours): not observed
condensation of trimethylethoxysilane (result in words) [4]: not observed

Cc1ccc(S(=O)(=O)N[C@@H](CCCCN)C(=O)CCl)cc1.Cl [TLCK, N-α-p-tosyl-L-lysine chloromethyl ketone hydrochloride]
product yield of the α-chymotrypsin condensation reaction after TLCK treatment ([3]; replicate condensation experiment): significantly decreased

CCO[Si](C)(C)CCCN [aminopropyldimethylethoxysilane]
trypsin-catalyzed hydrolysis and condensation (result in words) [1]: fully hydrolysed and condensed in the presence and absence of trypsin

COCCOCCOCCOCCO[Si](C)(C)C [glycol-functional silane]
trypsin-catalyzed hydrolysis and condensation (result in words) [1]: not definitive

C[Si]1(C)O[Si](C)(C)O[Si](C)(O)O[Si](C)(C)O1 [heptamethylhydroxytetracyclosiloxane]
trypsin-catalyzed hydrolysis and condensation (result in words) [1]: did not catalyze the condensation

c1c[nH]cn1 [imidazole]
condensation of trimethylsilanol (result in words) ([3]; pH 7.0, three hours): not observed
condensation of trimethylethoxysilane (result in words) [4]: not observed

CCO[Si](C)(C)c1ccccc1 [phenyldimethylethoxysilane]
trypsin-catalyzed hydrolysis and condensation (result in words) [1]: hydrolysed but not condensed

CCCCCCO[Si](C)(C)C [trimethylhexoxysilane]
trypsin-catalyzed hydrolysis and condensation (result in words) [1]: catalyzed the partial hydrolysis of trimethylhexoxysilane without condensation

elastase: porcine pancreatic elastase
condensation of trimethylsilanol (result in words) ([3]; pH 7.0, three hours): inactivity

poly-L-lysine
condensation of trimethylsilanol (result in words) ([3]; pH 7.0, three hours): not observed
hydrolysis of trimethylethoxysilane (result in words) ([4]; neutral medium (pH 7.0)): promoted the hydrolysis
condensation of trimethylethoxysilane (result in words) [4]: not observed

B1: porcine pancreas trypsin: porcine pancreatic trypsin (protein, UniProt P00761 9-231, looked up)
Trypsin: IVGGYTCAANSIPYQVSLNSGSHFCGGSLINSQWVVSAAHCYKSRIQVRLGEHNIDVLEGNEQFINAAKIITHPNFNGNTLDNDIMLIKLSSPATLNSRVATVSLPRSCAAAGTECLISGWGNTKSSGSSYPSLLQCLKAPVLSDSSCKSSYPGQITGNMICVGFLEGGKDSCQGDSGGPVVCNGQLQGIVSWGYGCAQKNKPGVYTKVCNYVNWIQQTIAAN
increase of yield of the condensation of trimethylsilanol with calcium [5]: 125%
hydrolysis of trimethylethoxysilane and condensation of trimethylsilanol (result in words) [5]: catalysed the complete hydrolysis
hydrolysis of trimethylethoxysilane and condensation of trimethylsilanol (result in words) ([5]; listed as trypsin from porcine pancreas): observed to catalyse the hydrolysis and condensation reactions

B2: recombinant bovine trypsin: Recombinant bovine trypsin expressed in maize (protein, UniProt P00760 24-246, looked up)
Serine protease 1: T1 sequence (P00760 24-246)
modifications: expressed in maize
increase of yield of the condensation of trimethylsilanol with calcium [5]: 65%
hydrolysis of trimethylethoxysilane and condensation of trimethylsilanol (result in words) [5]: catalysed the complete hydrolysis

B3: Candida antarctica lipase B: Candida antarctica lipase B immobilized on acrylic resin beads (protein, UniProt P41365 26-342, looked up)
Lipase B: LPSGSDPAFSQPKSVLDAGLTCQGASPSSVSKPILLVPGTGTTGPQSFDSNWIPLSTQLGYTPCWISPPPFMLNDTQVNTEYMVNAITALYAGSGNNKLPVLTWSQGGLVAQWGLTFFPSIRSKVDRLMAFAPDYKGTVLAGPLDALAVSAPSVWQQTTGSALTTALRNAGGLTQIVPTTNLYSATDEIVQPQVSNSPLDSSYLFNGKNVQAQAVCGPLFVIDHAGSLTSQFSYVVGRSALRSTTGQARSADYGITDCNPLPANDLTPEQKVAAAALLAPAAAAIVAGPKQNCEPDLMPYARPFAVGKRTCSGIVTP
modifications: immobilized on acrylic resin
notes: Candida antarctica lipase B immobilized on acrylic resin beads
condensation of trimethylsilanol, Water [6]: ✓ (determined to catalyse the condensation of greater than ten times more trimethylsilanol than the negative control reactions; as well as, greater than three or ten times more trimethylsilanol than the BSA reactions in organic and aqueous media, respectively)

B4: Rhizomucor miehei lipase: fungal lipase (protein, UniProt P19515 95-363, looked up)
Lipase: SIDGGIRAATSQEINELTYYTTLSANSYCRTVIPGATWDCIHCDATEDLKIIKTWSTLIYDTNAMVARGDSEKTIYIVFRGSSSIRNWIADLTFVPVSYPPVSGTKVHKGFLDSYGEVQNELVATVLDQFKQYPSYKVAVTGHSLGGATALLCALDLYQREEGLSSSNLFLYTQGQPRVGDPAFANYVVSTGIPYRRTVNERDIVPHLPPAAFGFLHAGEEYWITDNSPETVQVCTSDLETSDCSNSIVPFTSVLDHLSYFGINTGLCT
condensation of trimethylsilanol, Water [6]: ✓ (determined to catalyse the condensation of greater than ten times more trimethylsilanol than the negative control reactions; as well as, greater than three or ten times more trimethylsilanol than the BSA reactions in organic and aqueous media, respectively)
